Where a name gives a salt, the structure may show the parent alone.
target: truncated PI3Kα (p110α/iSH2 p85α) (Homo sapiens (Human), UniProt P42336); assay: PI3KA_Act fluorescence polarization kinase assay (Ki); assay type: biochemical; details: 1 mM ATP
From the text: 2) p110α-iSH2 p85α Complex (Full Length p110α and p85α iSH2)(“PI3KA_Act”)
Genes encoding for full length p110α and p85α nSH-iSH2=niSH2 (p85a aminoacids 322-600) subunits of PI3Kα complex were subcloned from existing constructs into pFASTBAC Dual vector (Life Technologies, Carlsbad, Calif.) using standard cloning procedures. Gene encoding p110α subunit was subcloned into polyhedrine promoter while gene encoding p85α niSH2 domains was subcloned into p10 promoter. Additionally, Human Rhinovirus 3C Protease (“HRV 3C”) site was introduced between nSH2 and iSH2, replacing aminoacids 431-438 of p85α with […] HRV 3C recognition sequence, using standard QuickChange mutagenesis protocol (Agilent Technologies, CA). Recombinant baculovirus was generated using Bac-to-Bac protocol (Life Technologies, Carlsbad, Calif.). Large scale expression was conducted in Sf21 (Life Technologies, Carlsbad, Calif.) cells at a multiplicity of infection (“MOI”)=1 for 48 hours. Cells were lyzed in 50 mM Tris pH 8.0, 250 mM NaCl, 5% glycerol, 0.25 mM TCEP, and 20 mM imidazole. The p110α-niSH2 p85α complex was purified from clarified supernatant using Immobilized Metalo Affinity Chromatography (“IMAC”). The protein was eluted from the column using 50 mM Tris pH 8.0, 200 mM NaCl, 0.25 mM TCEP, and 200 mM imidazole. Following elution p110α-niSH2 p85α complex was dialyzed against 4 liters of 50 mM Tris pH 8.0, 200 mM NaCl, 0.25 mM TCEP, and 40 mM imidazole in the presence of PreScission Protease (1:70 molar ratio of Protease to Protein) and TEV protease (1:40 molar ratio protease to protein) for 16 hours at 4° C. The protein was further purified using reverse IMAC to remove cleaved histidine tag and contaminants captured during initial IMAC purification. The mixture of p110α-iSH2 p85α complex and cleaved nSH2 was recovered in reverse IMAC 40 mM imidazole flow through and 60 mM imidazole wash fractions. Those fractions were pulled together and loaded on Superdex 200 26/60 SEC column equilibrated in 25 mM Tris, pH 8.0, 100 mM NaCl, 2% glycerol, and 2 mM TCEP. Following SEC, chromatography peak fractions containing p110α-iSH2 p85α complex were pulled and concentrated to 4.3 mg/mL. Purity and integrity of the complex was confirmed using LCMS, analytical SEC and SDS-PAGE (sodium dodecyl sulfate polyacrylamide gel electrophoresis) analysis.
The biochemical assays of kinase activity of full-length PI3Kα (full-length p110α/p85a) or truncated PI3Kα (p110α/iSH2 p85a) were conducted using a fluorescence polarization format similar to the procedure of Yuan J., et al., (2011) “PF-04691502, a Potent and Selective Oral Inhibitor of PI3K and mTOR Kinases with Antitumor Activity”, Mol Cancer Ther. 10, 2189-2199. The enzymatic reactions were conducted in 50 μL volumes in 96-well plates. The reactions contained human recombinant PI3Kα (2 nM full-length p110α/p85α or 0.5 nM p110α/iSH2 p85) and 30 μM phosphatidylinositol 4,5-bisphosphate (“PIP2”) (Cayman Chemical Company, Ann Arbor, Mich.) and were sonicated for 1 minute prior to adding PI3Kα enzyme (PI3KA_Act or PI3KA_FL), DMSO or test compound (12-point 3-fold serial dilution, 3 μM top dose, 2° A) DMSO final concentration), 5 mM MgCl2, 50 mM HEPES pH 7.4, 150 mM NaCl, 1 mM DTT ((2S,3S)-1,4-bis(sulfanyl)butane-2,3-diol), and 0.05% 3-[(3-cholamidopropyl)dimethylammonio]-1-propanesulfonate (“CHAPS”). […] The reactions were incubated for 30 min at room temperature, stopped with EDTA pH 8 (10 mM final concentration). In a detection plate, 15 μL of detector/probe mixture, containing 480 nM GST-Grp1 PH domain protein (University of Dundee, Dundee, UK) and 12 nM carboxytetramethylrhodamine (“TAMRA”)-tagged fluorescent phosphatidylinositol (3,4,5)-triphosphate (“PIP3”) (Echelon Biosciences, Inc., Salt Lake City, Utah) in assay buffer, was mixed with 15 μL of kinase reaction mixture. The plate was shaken for 30 minutes and fluorescence polarization values were measured on an LJL Analyst HT plate reader (Molecular Devices, Sunnyvale, Calif.). […]

Sequence of truncated PI3Kα (p110α/iSH2 p85α) (P42336 whole entry, the tested form may be a part): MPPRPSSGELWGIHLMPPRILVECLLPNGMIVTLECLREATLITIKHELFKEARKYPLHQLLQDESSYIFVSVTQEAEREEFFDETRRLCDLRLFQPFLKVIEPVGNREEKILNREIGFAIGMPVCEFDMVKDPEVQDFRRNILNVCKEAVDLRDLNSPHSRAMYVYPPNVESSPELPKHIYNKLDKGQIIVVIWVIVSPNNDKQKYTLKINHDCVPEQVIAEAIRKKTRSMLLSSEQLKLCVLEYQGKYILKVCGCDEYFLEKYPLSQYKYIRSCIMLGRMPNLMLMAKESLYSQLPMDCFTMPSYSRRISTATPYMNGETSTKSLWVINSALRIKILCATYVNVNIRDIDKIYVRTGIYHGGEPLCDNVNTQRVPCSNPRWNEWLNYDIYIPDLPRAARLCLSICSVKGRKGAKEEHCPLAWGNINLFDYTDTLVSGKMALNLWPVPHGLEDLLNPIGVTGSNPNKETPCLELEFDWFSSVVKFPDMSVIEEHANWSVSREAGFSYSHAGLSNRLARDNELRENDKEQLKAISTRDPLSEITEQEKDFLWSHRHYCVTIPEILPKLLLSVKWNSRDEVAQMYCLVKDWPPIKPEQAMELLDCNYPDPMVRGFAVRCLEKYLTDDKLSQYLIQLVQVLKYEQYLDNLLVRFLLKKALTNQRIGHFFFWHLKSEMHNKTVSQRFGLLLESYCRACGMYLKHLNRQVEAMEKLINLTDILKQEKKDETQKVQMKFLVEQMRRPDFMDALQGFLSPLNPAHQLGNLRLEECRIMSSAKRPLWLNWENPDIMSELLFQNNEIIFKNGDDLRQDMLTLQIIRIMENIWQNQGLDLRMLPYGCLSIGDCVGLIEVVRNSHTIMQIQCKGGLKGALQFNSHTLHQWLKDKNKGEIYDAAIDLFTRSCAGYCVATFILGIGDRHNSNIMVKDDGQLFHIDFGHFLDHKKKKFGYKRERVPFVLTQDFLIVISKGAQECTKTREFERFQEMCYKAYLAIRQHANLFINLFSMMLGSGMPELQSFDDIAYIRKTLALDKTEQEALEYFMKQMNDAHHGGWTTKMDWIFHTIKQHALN

Structure (SMILES) | Ki | PI3KA_Act Ki
C[C@]1(N2CCc3c(-c4cnc(N)nc4)nc(N4CCOCC4)nc32)CCN(C2CCNC2=O)C1 (stereo partly drawn) [Example 6, (3S)-3-[4-(2-aminopyrimidin-5-yl)-2-(morpholin-4-yl)-5,6-dihydro-7H-pyrrolo[2,3-d]pyrimidin-7-yl]-3-methyl-1,3′-bipyrrolidin-2′-one] | 96 pM | –
CC1(C)CN=C(N2CC[C@](C)(N3CCc4c(-c5cnc(N)nc5)nc(N5CCOCC5)nc43)C2)O1 [Example 8, 5-{7-[(3S)-1-(5,5-dimethyl-4,5-dihydro-1,3-oxazol-2-yl)-3-methylpyrrolidin-3-yl]-2-(morpholin-4-yl)-6,7-dihydro-5H-pyrrolo[2,3-d]pyrimidin-4-yl}pyrimidin-2-amine] | – | 19 pM
CC1(C)COC(N2CC[C@](C)(N3CCc4c(-c5cnc(N)nc5)nc(N5CCOCC5)nc43)C2)=N1 [Example 9, 5-{7-[(3S)-1-(4,4-dimethyl-4,5-dihydro-1,3-oxazol-2-yl)-3-methylpyrrolidin-3-yl]-2-(morpholin-4-yl)-6,7-dihydro-5H-pyrrolo[2,3-d]pyrimidin-4-yl}pyrimidin-2-amine] | – | <18 pM
[2H]C1([2H])OC([2H])([2H])C([2H])([2H])N(c2nc(-c3cnc(N)nc3)c3c(n2)N([C@@]2(C)CCN(C(=O)C(C)(C)N)C2)CC3)C1([2H])[2H] [Example 10, (S)-2-amino-1-(3-(4-(2-aminopyrimidin-5-yl)-2-morpholino-d8)-5,6-dihydro-7H-pyrrolo[2,3-d]pyrimidin-7-yl)-3-methylpyrrolidin-1-yl)-2-methylpropan-1-one hydrochloride] | < 18 pM | –
C[C@H]1COCCN1c1nc(-c2cnc(N)nc2)c2c(n1)N([C@H]1CCN(C(=O)NC(C)(C)C)C1)CC2 [Example 140] | – | 318 pM
C[C@H]1COCCN1c1nc(-c2cnc(N)nc2)c2c(n1)N(C1CN(C(=O)OC(C)(C)C)C1)CC2 [Example 141] | – | 471 pM
CNC(=O)COC(=O)N1CC(N2CCc3c(-c4cnc(N)nc4)nc(N4CCOCC4)nc32)C1 [Example 142] | – | 159 pM
CNC(=O)COC(=O)N1CC(N2CCc3c(-c4cnc(N)nc4)nc(N4CCOC[C@@H]4C)nc32)C1 [Example 143] | – | 262 pM
CNS(=O)(=O)N1CC[C@H](N2CCc3c(-c4cnc(N)nc4)nc(N4CCOC[C@H]4C)nc32)C1 [Example 144] | – | 3251 pM
C[C@@H]1COCCN1c1nc(-c2cnc(N)nc2)c2c(n1)N([C@H]1CCN(S(C)(=O)=O)C1)CC2 [Example 145] | – | 4011 pM
CNS(=O)(=O)N1CC(N2CCc3c(-c4cnc(N)nc4)nc(N4CCOCC4)nc32)C1 [Example 147] | – | 64 pM
CNS(=O)(=O)NCCOC(=O)N1CC(N2CCc3c(-c4cnc(N)nc4)nc(N4CCOCC4)nc32)C1 [Example 148] | – | 94 pM
C[C@]1(N2CCc3c(-c4cnc(N)nc4)nc(N4CCOCC4)nc32)CCN(S(C)(=O)=O)C1 [Example 149] | – | 27 pM
C[C@@]1(N2CCc3c(-c4cnc(N)nc4)nc(N4CCOCC4)nc32)CCN(S(C)(=O)=O)C1 [Example 150] | – | 44 pM
CN(C)C(=O)COC(=O)N1CC(N2CCc3c(-c4cnc(N)nc4)nc(N4CCOCC4)nc32)C1 [Example 151] | – | 107 pM
C[C@H]1COCCN1c1nc(-c2cnc(N)nc2)c2c(n1)N(C1CN(C(=O)OCC(=O)N(C)C)C1)CC2 [Example 152] | – | 103 pM
COCCCS(=O)(=O)N1CC(N2CCc3c(-c4cnc(N)nc4)nc(N4CCOC[C@@H]4C)nc32)C1 [Example 153] | – | 105 pM
C[C@H]1COCCN1c1nc(-c2cnc(N)nc2)c2c(n1)N(C1CN(S(=O)(=O)c3cn(C)cn3)C1)CC2 [Example 154] | – | 286 pM
COCCS(=O)(=O)N1CC(N2CCc3c(-c4cnc(N)nc4)nc(N4CCOC[C@@H]4C)nc32)C1 [Example 155] | – | 116 pM
C[C@H]1COCCN1c1nc(-c2cnc(N)nc2)c2c(n1)N([C@H]1CCN(C(=O)OC3COC3)C1)CC2 [Example 156] | – | 88 pM
C[C@H]1COCCN1c1nc(-c2cnc(N)nc2)c2c(n1)N(C(C)(C)C)CC2 [Example 157] | – | 173 pM

Structure (SMILES) | Ki | PI3KA_Act Ki
Nc1ncc(-c2nc(N3CCOCC3)nc3c2CCN3C23CC(C2)C3)cn1 [Example 158] | – | 200 pM
C[C@H]1COCCN1c1nc(-c2cnc(N)nc2)c2c(n1)N(C1CN(S(=O)(=O)CC3CC3)C1)CC2 [Example 159] | – | 97 pM
C[C@H]1COCCN1c1nc(-c2cnc(N)nc2)c2c(n1)N(C1CN(S(=O)(=O)c3cnn(C)c3)C1)CC2 [Example 160] | – | 221 pM
COCCCS(=O)(=O)N1CC(N2CCc3c(-c4cnc(N)nc4)nc(N4CCOCC4)nc32)C1 [Example 161] | – | 202 pM
C[C@H]1COCCN1c1nc(-c2cnc(N)nc2)c2c(n1)N(C1CN(S(=O)(=O)C(F)(F)F)C1)CC2 [Example 163] | – | 188 pM
C[C@H]1COCCN1c1nc(-c2cnc(N)nc2)c2c(n1)N(C1(C)CCN(S(C)(=O)=O)C1)CC2 (some centres unmarked) [Example 164] | – | 30 pM
COC(=O)C(C)(C)N1CCc2c(-c3cnc(N)nc3)nc(N3CCOCC3)nc21 [Example 165] | – | 449 pM
C[C@H]1COCCN1c1nc(-c2cnc(N)nc2)c2c(n1)N(C1CN(P(C)(C)=O)C1)CC2 [Example 166] | – | 280 pM
C[C@H](O)COC(=O)N1CC(N2CCc3c(-c4cnc(N)nc4)nc(N4CCOCC4)nc32)C1 [Example 167] | – | 230 pM
C[C@H]1COCCN1c1nc(-c2cnc(N)nc2)c2c(n1)N([C@H]1CCN(P(C)(C)=O)C1)CC2 [Example 168] | – | 297 pM
Nc1ncc(-c2nc(N3CCOCC3)nc3c2CCN3C2CN(S(=O)(=O)CC3CC3)C2)cn1 [Example 169] | – | 129 pM
COCCS(=O)(=O)N1CC(N2CCc3c(-c4cnc(N)nc4)nc(N4CCOCC4)nc32)C1 [Example 170] | – | 124 pM
Nc1ncc(-c2nc(N3CCOC[C@@H]3CO)nc3c2CCN3C2CC(F)(F)C2)cn1 [Example 171] | – | 2745 pM
CNS(=O)(=O)N1CC[C@@](C)(N2CCc3c(-c4cnc(N)nc4)nc(N4CCOCC4)nc32)C1 [Example 172] | – | 29 pM
CNS(=O)(=O)N1CC[C@](C)(N2CCc3c(-c4cnc(N)nc4)nc(N4CCOCC4)nc32)C1 [Example 173] | – | <18 pM
C[C@H]1COCCN1c1nc(-c2cnc(N)nc2)c2c(n1)N([C@]1(C)CCN(S(C)(=O)=O)C1)CC2 [Example 174] | – | 30 pM
C[C@H]1COCCN1c1nc(-c2cnc(N)nc2)c2c(n1)N([C@@]1(C)CCN(S(C)(=O)=O)C1)CC2 [Example 175] | – | 23 pM
CC(C)C(C)(C)N1CCc2c(-c3cnc(N)nc3)nc(N3CCOCC3)nc21 [Example 176] | – | 462 pM
C[C@H]1COCCN1c1nc(-c2cnc(N)nc2)c2c(n1)N([C@@H]1CCN(P(C)(C)=O)C1)CC2 [Example 177] | – | 615 pM
Cn1cc(S(=O)(=O)N2CC(N3CCc4c(-c5cnc(N)nc5)nc(N5CCOCC5)nc43)C2)cn1 [Example 178] | – | 125 pM

Reference: patent US9260439B2, “Dihydropyrrolopyrimidine derivatives” (PFIZER INC., priority 2014, dated 2016)
